In patent US11566007B2, “Ras inhibitors” (Revolution Medicines, Inc., priority 2019, dated 2023):
Like-named read-outs stand apart in the source and are kept apart here.

Columns and labels:
[1] = from CCn1c(-c2cccnc2[C@H](C)OC)c(CC(C)(C)CO)c2cc(C3=CCCN(CC(NC(=O)OC(C)(C)C)C(=O)N4CCC[C@@H](C(=O)O)N4)C3)ccc21; ester bond; EDCI.HCl/HOBt/DIPEA; DCM; 7.14 mM; 30.0 °C; 16.0 h
[2] = 18-membered ring
[3] = molecular target: KRAS WT (Homo sapiens (Human), UniProt P01116+P62937); assay: Ras-Raf (BRAF RBD) disruption / FRET / MOA assay, KRAS WT; type: biochemical; settings: read-out: IC50* KRAS WT FRET data
Sequence of KRAS WT (P01116-2 other isoform, or with tags, fused parts or gaps): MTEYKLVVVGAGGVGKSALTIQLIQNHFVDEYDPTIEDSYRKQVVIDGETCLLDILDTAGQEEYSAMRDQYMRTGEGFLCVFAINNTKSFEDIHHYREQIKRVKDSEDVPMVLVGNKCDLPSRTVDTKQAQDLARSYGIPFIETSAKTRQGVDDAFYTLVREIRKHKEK
Sequence of KRAS WT (P62937 whole entry): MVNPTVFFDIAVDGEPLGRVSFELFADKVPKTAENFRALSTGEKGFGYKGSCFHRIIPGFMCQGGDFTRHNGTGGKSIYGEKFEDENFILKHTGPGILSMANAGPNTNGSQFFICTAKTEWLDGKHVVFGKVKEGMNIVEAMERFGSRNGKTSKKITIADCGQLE
Summary of the method: (§1)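 TR-FRET read-out: a drop in ratio relative to DMSO wells marks disruption of the Ras:RAF complex, reported as IC50. Compounds (3-fold series, 10 points, top 30 μM final) incubated 3 h at 25° C before Eu-anti-His 10 nM and APC-anti-GST 50 nM, 1.5 h more.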

[4] = molecular target: NRAS WT (Homo sapiens (Human), UniProt P01111+P62937); assay: Ras-Raf (BRAF RBD) disruption / FRET / MOA assay, NRAS WT; type: biochemical; settings: read-out: IC50* NRAS WT FRET data
Sequence of NRAS WT (P01111 whole entry): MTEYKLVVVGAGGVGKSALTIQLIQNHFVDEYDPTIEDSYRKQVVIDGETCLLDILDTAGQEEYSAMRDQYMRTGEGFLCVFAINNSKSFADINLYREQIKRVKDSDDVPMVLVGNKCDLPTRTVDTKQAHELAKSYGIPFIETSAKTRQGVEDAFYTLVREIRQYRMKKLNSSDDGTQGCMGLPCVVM
Sequence of NRAS WT (P62937 whole entry): as the sequence (P62937 whole entry) above
Summary of the method: (§2)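 Compounds were tested as a 10-point 3-fold dilution series from 30 μM final for their ability to drive ternary complex formation between nucleotide-loaded Ras and cyclophilin A, displacing the BRAF RBD. After 3 h at 25° C., anti-His Eu-W1024 (10 nM) and anti-GST allophycocyanin (50 nM) were added for 1.5 h. A TR-FRET ratio decrease versus DMSO gave IC50.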

[5] = molecular target: KRAS G13D (Homo sapiens (Human), UniProt P01116+P62937, G13D); assay: Ras-Raf (BRAF RBD) disruption / FRET / MOA assay, KRAS G13D; type: biochemical; settings: read-out: IC50* KRAS G13D FRET data
Sequence of KRAS G13D (P01116-2 other isoform, or with tags, fused parts or gaps G13D): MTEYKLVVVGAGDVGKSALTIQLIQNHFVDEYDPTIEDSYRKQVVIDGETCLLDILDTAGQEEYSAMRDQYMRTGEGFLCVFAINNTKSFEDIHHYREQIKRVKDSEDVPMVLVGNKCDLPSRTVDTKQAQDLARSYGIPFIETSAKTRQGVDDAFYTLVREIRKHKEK
Sequence of KRAS G13D (P62937 whole entry): as the sequence (P62937 whole entry) above
Summary of the method: as §1

[6] = molecular target: NRAS Q61K (Homo sapiens (Human), UniProt P01111+P62937, Q61K); assay: Ras-Raf (BRAF RBD) disruption / FRET / MOA assay, NRAS Q61K; type: biochemical; settings: NRAS Q61K; Ras-Raf disruption/FRET/MOA assay; read-out: IC50* NRAS Q61K FRET data
Sequence of NRAS Q61K (P01111 whole entry Q61K): as the sequence (P01111 whole entry) above, with Q61K counted along it
Sequence of NRAS Q61K (P62937 whole entry): as the sequence (P62937 whole entry) above
Summary of the method: as §2

[7] = molecular target: KRAS G12V (Homo sapiens (Human), UniProt P01116+P62937, G12V); assay: Ras-Raf (BRAF RBD) disruption / FRET / MOA assay, KRAS G12V; type: biochemical; settings: read-out: IC50* KRAS G12V FRET data
Sequence of KRAS G12V (P01116-2 other isoform, or with tags, fused parts or gaps G12V): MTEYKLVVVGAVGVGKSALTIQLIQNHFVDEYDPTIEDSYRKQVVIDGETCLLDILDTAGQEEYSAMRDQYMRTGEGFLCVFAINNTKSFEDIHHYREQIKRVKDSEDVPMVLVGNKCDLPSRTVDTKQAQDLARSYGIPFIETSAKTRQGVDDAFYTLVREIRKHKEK
Sequence of KRAS G12V (P62937 whole entry): as the sequence (P62937 whole entry) above
Summary of the method: as §1

[8] = molecular target: KRAS G12S (Homo sapiens (Human), UniProt P01116+P62937, G12S); assay: Ras-Raf (BRAF RBD) disruption / FRET / MOA assay, KRAS G12S; type: biochemical; settings: Ras-Raf disruption/FRET/MOA assay; class symbols; read-out: KRAS G12S FRET data IC50
Sequence of KRAS G12S (P01116-2 other isoform, or with tags, fused parts or gaps G12S): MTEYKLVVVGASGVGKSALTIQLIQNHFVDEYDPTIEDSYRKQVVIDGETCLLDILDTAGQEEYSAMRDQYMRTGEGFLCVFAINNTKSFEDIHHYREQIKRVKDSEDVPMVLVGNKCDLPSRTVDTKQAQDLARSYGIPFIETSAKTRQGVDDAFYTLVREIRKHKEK
Sequence of KRAS G12S (P62937 whole entry): as the sequence (P62937 whole entry) above
Summary of the method: as §1

[9] = molecular target: KRAS G12D (Homo sapiens (Human), UniProt P01116+P62937, G12D); assay: Ras-Raf (BRAF RBD) disruption / FRET / MOA assay, KRAS G12D; type: biochemical; settings: Ras-Raf disruption/FRET/MOA assay; class symbols; read-out: KRAS G12D FRET data IC50
Sequence of KRAS G12D (P01116-2 other isoform, or with tags, fused parts or gaps G12D): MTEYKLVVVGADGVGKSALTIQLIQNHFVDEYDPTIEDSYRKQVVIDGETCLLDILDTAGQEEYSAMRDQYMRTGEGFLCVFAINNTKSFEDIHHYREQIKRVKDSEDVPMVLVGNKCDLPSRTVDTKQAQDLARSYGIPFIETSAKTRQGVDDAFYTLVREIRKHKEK
Sequence of KRAS G12D (P62937 whole entry): as the sequence (P62937 whole entry) above
Summary of the method: as §1

[10] = molecular target: KRAS Q61H (Homo sapiens (Human), UniProt P01116+P62937, Q61H); assay: Ras-Raf (BRAF RBD) disruption / FRET / MOA assay, KRAS Q61H; type: biochemical; settings: Ras-Raf disruption/FRET/MOA assay; class symbols; read-out: KRAS Q61H FRET data IC50
Sequence of KRAS Q61H (P01116-2 other isoform, or with tags, fused parts or gaps Q61H): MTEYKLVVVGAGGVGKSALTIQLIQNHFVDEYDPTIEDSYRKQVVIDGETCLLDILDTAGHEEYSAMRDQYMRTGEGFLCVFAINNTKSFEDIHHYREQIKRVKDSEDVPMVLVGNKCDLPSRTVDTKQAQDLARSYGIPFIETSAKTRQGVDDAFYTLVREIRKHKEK
Sequence of KRAS Q61H (P62937 whole entry): as the sequence (P62937 whole entry) above
Summary of the method: as §2

[11] = molecular target: K-Ras G13C (Homo sapiens (Human), UniProt P01116+P62937, G13C); assay: Ras-Raf (BRAF RBD) disruption / FRET / MOA assay, KRAS G13C; type: biochemical; settings: KRAS G13C; Ras-Raf disruption/FRET/MOA assay; read-out: IC50* KRAS G13C FRET data
Sequence of K-Ras G13C (P01116-2 other isoform, or with tags, fused parts or gaps G13C): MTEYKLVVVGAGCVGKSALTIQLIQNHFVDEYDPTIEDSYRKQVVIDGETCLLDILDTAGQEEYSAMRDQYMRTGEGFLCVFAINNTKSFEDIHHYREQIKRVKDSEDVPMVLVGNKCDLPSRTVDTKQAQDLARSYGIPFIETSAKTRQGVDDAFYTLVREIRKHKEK
Sequence of K-Ras G13C (P62937 whole entry): as the sequence (P62937 whole entry) above
Summary of the method: as §1

[12] = molecular target: NRAS G12C (Homo sapiens (Human), UniProt P01111+P62937, G12C); assay: Ras-Raf (BRAF RBD) disruption / FRET / MOA assay, NRAS G12C; type: biochemical; settings: read-out: IC50* NRAS G12C FRET data
Sequence of NRAS G12C (P01111 whole entry G12C): as the sequence (P01111 whole entry) above, with G12C counted along it
Sequence of NRAS G12C (P62937 whole entry): as the sequence (P62937 whole entry) above
Summary of the method: as §1

[13] = molecular target: NRAS Q61R (Homo sapiens (Human), UniProt P01111+P62937, Q61R); assay: Ras-Raf (BRAF RBD) disruption / FRET / MOA assay, NRAS Q61R; type: biochemical; settings: NRAS Q61R; Ras-Raf disruption/FRET/MOA assay; read-out: IC50* NRAS Q61R FRET data
Sequence of NRAS Q61R (P01111 whole entry Q61R): as the sequence (P01111 whole entry) above, with Q61R counted along it
Sequence of NRAS Q61R (P62937 whole entry): as the sequence (P62937 whole entry) above
Summary of the method: as §2

[14] = test system: NCI-H358 (K-Ras G12C); assay: CellTiter-Glo cell viability assay, NCI-H358; type: cell-based, human; settings: Homo sapiens, NCI-H358, 120 h, NCI-H358, 5-day treatment; class symbols; read-out: Additional H358 Cell Viability assay data (K-Ras G12C, IC50)
Summary of the method: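 Compounds dispensed directly onto seeded K-Ras mutant cells; plates read on day 5 after ~30 min equilibration to room temperature, by CellTiter-Glo luminescence. Signal normalized as (sample/mean DMSO)×100, then fitted to a four-parameter logistic curve.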

[15] = molecular target: K-Ras G12C (Homo sapiens (Human), UniProt P01116+P62937, G12C); assay: Ras-Raf (BRAF RBD) disruption / FRET / MOA assay, KRAS G12C; type: biochemical; settings: KRAS G12C; Ras-Raf disruption/FRET/MOA assay; read-out: IC50* KRAS G12C FRET data
Sequence of K-Ras G12C (P01116-2 other isoform, or with tags, fused parts or gaps G12C): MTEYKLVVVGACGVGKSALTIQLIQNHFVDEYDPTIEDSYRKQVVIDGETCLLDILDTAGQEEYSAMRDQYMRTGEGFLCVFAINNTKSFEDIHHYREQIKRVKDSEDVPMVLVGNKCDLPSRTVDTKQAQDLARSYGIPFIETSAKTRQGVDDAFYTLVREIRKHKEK
Sequence of K-Ras G12C (P62937 whole entry): as the sequence (P62937 whole entry) above
Summary of the method: as §1

Compound | IC50 [3] [µM] | IC50 [4] [µM] | IC50 [5] [µM] | IC50 [6] [µM] | IC50 [7] [µM] | IC50 [8] [µM] | IC50 [9] [µM] | IC50 [10] [µM] | IC50 [11] [µM] | IC50 [12] [µM] | IC50 [13] [µM] | IC50 [14] [µM] | IC50 [15] [µM] | further results
CCn1c(-c2cccnc2[C@H](C)OC)c2c3cc(ccc31)C1=CCCN(C1)CC(NC(=O)OC(C)(C)C)C(=O)N1CCC[C@H](N1)C(=O)OCC(C)(C)C2 (some centres unmarked) | – | – | – | – | – | – | – | – | – | – | – | – | – | ring closure, yield of all isomers [1]: 40%
CCn1c(-c2cccnc2[C@H](C)OC)c2c3cc(ccc31)N1CCO[C@@H](C[C@H](NC(=O)OCc3ccccc3)C(=O)N3CCC[C@H](N3)C(=O)OCC(C)(C)C2)C1 | – | – | – | – | – | – | – | – | – | – | – | – | – | ring closure, isolated yield ([2]; from CCn1c(-c2cccnc2[C@H](C)OC)c(CC(C)(C)CO)c2cc(N3CCO[C@@H](C[C@H](NC(=O)OCc4ccccc4)C(=O)N4CCC[C@@H](C(=O)O)N4)C3)ccc21, ester bond, EDCI/HOBt/DIPEA, DCM, 12.75 mM, 25.0 °C): 66%
CO[C@@H](C)c1ncc(N2CCN(C(=O)OCc3ccccc3)CC2)cc1-c1c2c3cc(ccc3n1CC(F)(F)F)-c1cccc(c1)C[C@H](NC(=O)OC(C)(C)C)C(=O)N1CCC[C@H](N1)C(=O)OCC(C)(C)C2 | – | – | – | – | – | – | – | – | – | – | – | – | – | ring closure, isolated yield ([2]; from CO[C@@H](C)c1ncc(N2CCN(C(=O)OCc3ccccc3)CC2)cc1-c1c(CC(C)(C)CO)c2cc(-c3cccc(C[C@H](NC(=O)OC(C)(C)C)C(=O)N4CCC[C@@H](C(=O)O)N4)c3)ccc2n1CC(F)(F)F, ester bond, EDCI/HOBt/DIPEA, DCM, 9.9 mM): 67.9%
CO[C@@H](C)c1ncccc1-c1c2c3cc(ccc3n1CC(F)(F)F)N1CCO[C@@H](C[C@H](NC(=O)OCc3ccccc3)C(=O)N3CCC[C@H](N3)C(=O)OCC(C)(C)C2)C1 | – | – | – | – | – | – | – | – | – | – | – | – | – | ring closure, isolated yield ([2]; from CO[C@@H](C)c1ncccc1-c1c(CC(C)(C)CO)c2cc(N3CCO[C@@H](C[C@H](NC(=O)OCc4ccccc4)C(=O)N4CCC[C@@H](C(=O)O)N4)C3)ccc2n1CC(F)(F)F, ester bond, EDCI/HOBt/DIPEA, DCM, 11.25 mM): 74%
C=CC(=O)N1CC[C@H](C(=O)N(C)[C@H](C(=O)N[C@H]2Cc3cccc(c3)-c3ccc4c(c3)c(c(-c3cnn(C)c3CN(C)C)n4CC)CC(C)(C)COC(=O)[C@@H]3CCCN(N3)C2=O)C(C)C)C1 (relative stereo) [Example A329] | > 10 | > 10 | > 10 | > 10 | > 10 | > 10 | > 10 | > 10 | > 10 | > 10 | > 10 | 0.1 to 1 | > 10 | –
C=CC(=O)N1CC[C@H](C(=O)N(C)[C@H](C(=O)N[C@H]2Cc3cc(O)cc(c3)-c3cc4c(c(-c5ccccc5CCOC)n(CC)c4cn3)CC(C)(C)COC(=O)[C@@H]3CCCN(N3)C2=O)C(C)C)C1 [Example A102] | > 10 | > 10 | > 10 | > 10 | > 10 | > 10 | > 10 | 1 to 10 | > 10 | 1 to 10 | > 10 | > 1 | 1 to 10 | –
C=CC(=O)N1CC[C@H](C(=O)N(C)[C@H](C(=O)N[C@H]2Cc3cc(O)cc(c3)-c3ccc4nc(-c5cccnc5[C@H](C)OC)n(c4c3)CC(C)(C)COC(=O)[C@@H]3CCCN(N3)C2=O)C(C)C)C1 [Example A242] | > 10 | > 10 | > 10 | > 10 | 1 to 10 | > 10 | > 10 | 1 to 10 | 1 to 10 | 1 to 10 | > 10 | > 1 | 1 to 10 | –
C=CC(=O)N1CC[C@H](C(=O)N(C)[C@H](C(=O)N[C@H]2Cc3cc(O)cc(c3)-c3ccc4nc(-c5cccnc5COC)c(n4c3)CC(C)(C)COC(=O)[C@@H]3CCCN(N3)C2=O)C(C)C)C1 [Example A243] | > 10 | > 10 | > 10 | > 10 | > 10 | > 10 | > 10 | > 10 | > 10 | > 10 | > 10 | > 1 | > 10 | –
C=CC(=O)N1CC[C@H](C(=O)N(C)[C@H](C(=O)NC2C[C@@H]3CN(CCO3)c3ccc4c(c3)c(c(-c3cccnc3[C@H](C)OC)n4CC)CC(C)(C)COC(=O)[C@@H]3CC(Br)CN(N3)C2=O)C(C)C)C1 (some centres unmarked) [Example A313] | > 10 | > 10 | > 10 | > 10 | > 10 | > 10 | > 10 | > 10 | > 10 | 1 to 10 | > 10 | > 1 | 1 to 10 | –
C=CC(=O)N1CC[C@H](C(=O)N(C)[C@H](C(=O)N[C@H]2Cc3cccc(c3)-c3ccc4c(c3)c(c(-c3cnn(C5CCN(C)CC5)c3[C@H](C)OC)n4CC)CC(C)(C)COC(=O)[C@@H]3CCCN(N3)C2=O)C(C)C)C1 [Example A482] | > 10 | > 10 | > 10 | > 10 | > 10 | > 10 | > 10 | > 10 | > 10 | > 10 | > 10 | 0.1 to 1 | > 10 | –
tert-butyl ((6^3S,4S)-1^1-ethyl-1^2-(2-((S)-1-methoxyethyl)pyridin-3-yl)-10,10-dimethyl-5,7-dioxo-6^1,6^2,6^3,6^4,6^5,6^6-hexahydro-1^1H-8-oxa-2(5,2)-oxazola-1(5,3)-indola-6(1,3)-pyridazinacycloundecaphane-4-yl)carbamate | – | – | – | – | – | – | – | – | – | – | – | – | – | ring closure, isolated yield ([2]; ester bond, EDCI/HOBt/DIPEA, DCM, 13.7 mM, 0.0 °C): 56.4%
tert-butyl ((6^3S,4S)-1^1-ethyl-1^2-(2-(methoxymethyl)phenyl)-10,10-dimethyl-2^5-nitro-5,7-dioxo-6^1,6^2,6^3,6^4,6^5,6^6-hexahydro-1^1H-8-oxa-1(5,3)-indola-6(1,3)-pyridazina-2(1,3)-benzenacycloundecaphane-4-yl)carbamate | – | – | – | – | – | – | – | – | – | – | – | – | – | ring closure, isolated yield ([2]; ester bond, EDCI/HOBt/DIPEA, DCM, 6.4 mM): 73%
tert-butyl ((6^3S,4S)-2^5-(difluoromethyl)-1^1-ethyl-1^2-(2-((S)-1-methoxyethyl)pyridin-3-yl)-10,10-dimethyl-5,7-dioxo-6^1,6^2,6^3,6^4,6^5,6^6-hexahydro-1^1H-8-oxa-1(5,3)-indola-6(1,3)-pyridazina-2(1,3)-benzenacycloundecaphane-4-yl)carbamate | – | – | – | – | – | – | – | – | – | – | – | – | – | ring closure, isolated yield ([2]; ester bond, EDCI/HOBt/DIPEA, DCM): 51%
tert-butyl ((6^3S,4S,Z)-1^1-ethyl-1^2-(2-((S)-1-methoxyethyl)pyridin-3-yl)-2^1,10,10-trimethyl-5,7-d ioxo-6^1,6^2,6^3,6^4,6^5,6^6-hexahydro-1^1H,2^1H-8-oxa-1(5,3)-indola-6(1,3)-pyridazina-2(5,3)-triazolacycloundecaphane-4-yl)carbamate | – | – | – | – | – | – | – | – | – | – | – | – | – | ring closure, isolated yield ([2]; cc_pd bond, XPhos Pd G3/XPhos/K3PO4, dioxane/H2O 5:1, 71.7 mM, 75.0 °C): 56.8%
